What follows are compounds tested against T1, human IL-17AA (Homo sapiens, UniProt Q16552) (assay: IL-8 release assay in human epithelial keratinocytes adult (HEKa)). Details: 3 ng/ml human IL-17AA + 10 ng/ml human TNFalpha, 68-72 h, IL-8 by HTRF, read-out: Rel EC50 L-8 release assay.
T1 construct: host or cells: HEK (human embryonic kidney) cells
T1 sequence (Q16552 24-155) 1: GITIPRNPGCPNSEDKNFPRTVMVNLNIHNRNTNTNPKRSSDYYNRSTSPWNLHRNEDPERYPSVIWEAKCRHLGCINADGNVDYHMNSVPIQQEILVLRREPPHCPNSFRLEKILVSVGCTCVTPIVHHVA
T1 sequence (Q16552 24-155) 2: T1 sequence (Q16552 24-155) 1
Type: cell-based
Procedure, shortened: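 Adult human keratinocytes in Epilife with HKGS minus hydrocortisone, treated with compound then stimulated with final 3 ng/ml HEK-derived human IL-17AA plus 10 ng/ml TNF-alpha for 68–72 h at 37 °C; TNF-alpha alone defines 100% inhibition. Secreted IL-8 by HTRF; relative IC50 and Emax from four-parameter fits.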

EC50 | Structure (SMILES)
100 to 1000 nM | Cc1cnn(C)c1-c1ccc(NC(=O)[C@@H](NC(=O)C2(F)CC2)[C@@H]2CCc3ccc(-c4cc(N5C[C@@H]6C[C@H]5CO6)ncn4)cc32)cc1 [Example 365, N-[(1S)-2-[4-(2,4-dimethylpyrazol-3-yl)anilino]-1-[(1R)-6-[6-[(1S,4S)-2-oxa-5-azabicyclo[2.2.1]heptan-5-yl]pyrimidin-4-yl]indan-1-yl]-2-oxo-ethyl]-1-fluoro-cyclopropanecarboxamide]
100 to 1000 nM | Cc1nc(-c2ccc3c(c2)[C@H]([C@H](NC(=O)C2(F)CC2)C(=O)Nc2ccc(-c4c(C)n[nH]c4C)cc2)CC3)cc(N2C[C@@H]3C[C@H]2CO3)n1 [Example 366, N-[(1S)-2-[4-(3,5-dimethyl-1H-pyrazol-4-yl)anilino]-1-[(1R)-6-[2-methyl-6-[(1S,4S)-2-oxa-5-azabicyclo[2.2.1]heptan-5-yl]pyrimidin-4-yl]indan-1-yl]-2-oxo-ethyl]-1-fluoro-cyclopropanecarboxamide]
< 100 nM | Cc1n[nH]c(C)c1-c1ccc(NC(=O)[C@@H](NC(=O)C2(F)CC2)[C@@H]2CCc3ccc(-c4ccnc(N5C[C@@H]6C[C@H]5CO6)n4)cc32)cc1 [Example 367, N-[(1S)-2-[4-(3,5-dimethyl-1H-pyrazol-4-yl)anilino]-1-[(1R)-6-[2-[(1S,4S)-2-oxa-5-azabicyclo[2.2.1]heptan-5-yl]pyrimidin-4-yl]indan-1-yl]-2-oxo-ethyl]-1-fluoro-cyclopropanecarboxamide]
100 to 1000 nM | Cc1n[nH]c(C)c1-c1ccc(NC(=O)[C@@H](NC(=O)C2(F)CC2)[C@@H]2CCc3ccc(-c4cc(N5C[C@@H]6C[C@H]5CO6)ccn4)cc32)cc1 [Example 368, N-[(1S)-2-[4-(3,5-dimethyl-1H-pyrazol-4-yl)anilino]-1-[(1R)-6-[4-[(1S,4S)-2-oxa-5-azabicyclo[2.2.1]heptan-5-yl]-2-pyridyl]indan-1-yl]-2-oxo-ethyl]-1-fluoro-cyclopropanecarboxamide]
< 100 nM | Cc1cnn(C)c1-c1ccc(NC(=O)[C@@H](NC(=O)C2(F)CC2)[C@@H]2CCc3ccc(-c4ccnc(N5C[C@@H]6C[C@H]5CO6)c4)cc32)cc1O [Example 369, N-[(1S)-2-[4-(2,4-dimethylpyrazol-3-yl)-3-hydroxy-anilino]-1-[(1R)-6-[2-[(1S,4S)-2-oxa-5-azabicyclo[2.2.1]heptan-5-yl]-4-pyridyl]indan-1-yl]-2-oxo-ethyl]-1-fluoro-cyclopropanecarboxamide]
< 100 nM | Cc1cc(-c2ccc3c(c2)[C@H]([C@H](NC(=O)C2(F)CC2)C(=O)Nc2ccc(-c4c(C)n[nH]c4C)cc2)CC3)nc(N2C[C@@H]3C[C@H]2CO3)n1 [Example 370, N-[(1S)-2-[4-(3,5-dimethyl-1H-pyrazol-4-yl)anilino]-1-[(1R)-6-[6-methyl-2-[(1S,4S)-2-oxa-5-azabicyclo[2.2.1]heptan-5-yl]pyrimidin-4-yl]indan-1-yl]-2-oxo-ethyl]-1-fluoro-cyclopropanecarboxamide]
< 100 nM | Cc1nn(C)c(C)c1-c1ccc(NC(=O)[C@@H](NC(=O)C2(F)CC2)[C@@H]2CCc3ccc(-c4ccnc(N5C[C@@H]6C[C@H]5CO6)c4)cc32)cc1 [Example 371, 1-fluoro-N-[(1S)-1-[(1R)-6-[2-[(1S,4S)-2-oxa-5-azabicyclo[2.2.1]heptan-5-yl]-4-pyridyl]indan-1-yl]-2-oxo-2-[4-(1,3,5-trimethylpyrazol-4-yl)anilino]ethyl] cyclopropanecarboxamide]
100 to 1000 nM | Cc1nn(C)cc1-c1ccc(NC(=O)[C@@H](NC(=O)C2(F)CC2)[C@@H]2CCc3ccc(-c4ccnc(N5C[C@@H]6C[C@H]5CO6)c4)cc32)cc1 [Example 372, N-[(1S)-2-[4-(1,3-dimethylpyrazol-4-yl)anilino]-1-[(1R)-6-[2-[(1S,4S)-2-oxa-5-azabicyclo[2.2.1]heptan-5-yl]-4-pyridyl]indan-1-yl]-2-oxo-ethyl]-1-fluoro-cyclopropanecarboxamide]
< 100 nM | Cc1n[nH]c(C)c1-c1ccc(NC(=O)[C@@H](NC(=O)C2(F)CC2)[C@@H]2CCc3ccc(-c4cccc(N5C[C@@H]6C[C@H]5CN6)c4)cc32)cc1 [Example 373, N-[(1S)-1-[(1R)-6-[3-[(1S,4S)-2,5-diazabicyclo[2.2.1]heptan-2-yl]phenyl]indan-1-yl]-2-[4-(3,5-dimethyl-1H-pyrazol-4-yl)anilino]-2-oxo-ethyl]-1-fluoro-cyclopropanecarboxamide]
100 to 1000 nM | Cc1n[nH]c(C)c1-c1ccc(NC(=O)[C@@H](NC(=O)OC2CC2)[C@@H]2CCc3ccc(-c4cc(N5C[C@@H]6C[C@H]5CO6)ncn4)cc32)cc1 [Example 374, cyclopropyl N-[(1S)-2-[4-(3,5-dimethyl-1H-pyrazol-4-yl)anilino]-1-[(1R)-6-[6-[(1S,4S)-2-oxa-5-azabicyclo[2.2.1]heptan-5-yl]pyrimidin-4-yl]indan-1-yl]-2-oxo-ethyl]carbamate]
100 to 1000 nM | Cc1n[nH]c(C)c1-c1ccc(NC(=O)[C@@H](NC(=O)C2(F)CC2)[C@@H]2CCc3ccc(-c4cc(N5CC(F)(F)C5)ncn4)cc32)cc1 [Example 375, N-[(1S)-1-[(1R)-6-[6-(3,3-difluoroazetidin-1-yl)pyrimidin-4-yl]indan-1-yl]-2-[4-(3,5-dimethyl-1H-pyrazol-4-yl)anilino]-2-oxo-ethyl]-1-fluoro-cyclopropanecarboxamide]
100 to 1000 nM | Cc1n[nH]c(C)c1-c1ccc(NC(=O)[C@@H](NC(=O)C2(F)CC2)[C@@H]2CCc3ccc(-c4cc(N5CC(F)C5)ncn4)cc32)cc1 [Example 376, N-[(1S)-2-[4-(3,5-dimethyl-1H-pyrazol-4-yl)anilino]-1-[(1R)-6-[6-(3-fluoroazetidin-1-yl)pyrimidin-4-yl]indan-1-yl]-2-oxo-ethyl]-1-fluoro-cyclopropanecarboxamide]
< 100 nM | Cc1n[nH]c(C)c1-c1ccc(NC(=O)[C@@H](NC(=O)C2(F)CC2)[C@@H]2CCc3ccc(-c4cncc(N5C[C@@H]6C[C@H]5CO6)c4)cc32)cc1 [Example 377, N-[(1S)-2-[4-(3,5-dimethyl-1H-pyrazol-4-yl)anilino]-1-[(1R)-6-[5-[(1S,4S)-2-oxa-5-azabicyclo[2.2.1]heptan-5-yl]-3-pyridyl]indan-1-yl]-2-oxo-ethyl]-1-fluoro-cyclopropanecarboxamide]
< 100 nM | Cc1cnn(C)c1-c1ccc(NC(=O)[C@@H](NC(=O)c2ccnn2C)[C@@H]2CCc3ccc(-c4ccnc(N5C[C@@H]6C[C@H]5CO6)c4)cc32)cc1 [Example 378, N-[(1S)-2-[4-(2,4-dimethylpyrazol-3-yl)anilino]-1-[(1R)-6-[2-[(1S,4S)-2-oxa-5-azabicyclo[2.2.1]heptan-5-yl]-4-pyridyl]indan-1-yl]-2-oxo-ethyl]-2-methyl-pyrazole-3-carboxamide]
< 100 nM | Cc1cnn(C)c1-c1ccc(NC(=O)[C@@H](NC(=O)C2(F)CC2)[C@@H]2CCc3ccc(-c4cncc(N5C[C@@H]6C[C@H]5CO6)n4)cc32)cc1 [Example 379, N-[(1S)-2-[4-(2,4-dimethylpyrazol-3-yl)anilino]-1-[(1R)-6-[6-[(1S,4S)-2-oxa-5-azabicyclo[2.2.1]heptan-5-yl]pyrazin-2-yl]indan-1-yl]-2-oxo-ethyl]-1-fluoro-cyclopropanecarboxamide]
100 to 1000 nM | Cc1cnn(C)c1-c1ccc(NC(=O)[C@@H](NC(=O)c2ccnn2C)[C@@H]2CCc3ccc(-c4cncc(C5CC5)n4)cc32)cc1 [Example 380, N-[(1S)-1-[(1R)-6-(6-cyclopropylpyrazin-2-yl)indan-1-yl]-2-[4-(2,4-dimethylpyrazol-3-yl)anilino]-2-oxo-ethyl]-2-methyl-pyrazole-3-carboxamide]
100 to 1000 nM | Cc1n[nH]c(C)c1-c1ccc(NC(=O)[C@@H](NC(=O)C2(F)CC2)[C@@H]2CCc3ccc(-c4cnnc(C5CC5)c4)cc32)cc1 [Example 381, N-[(1S)-1-[(1R)-6-(6-cyclopropylpyridazin-4-yl)indan-1-yl]-2-[4-(3,5-dimethyl-1H-pyrazol-4-yl)anilino]-2-oxo-ethyl]-1-fluoro-cyclopropanecarboxamide]
100 to 1000 nM | Cc1cnn(C)c1-c1ccc(NC(=O)[C@@H](NC(=O)c2ccnn2C)[C@@H]2CCc3ccc(-c4ccnc(C(C)C)n4)cc32)cc1 [Example 382, N-[(1S)-2-[4-(2,4-dimethylpyrazol-3-yl)anilino]-1-[(1R)-6-(2-isopropylpyrimidin-4-yl)indan-1-yl]-2-oxo-ethyl]-2-methyl-pyrazole-3-carboxamide]
> 1000 nM | Cc1cnn(C)c1-c1ccc(NC(=O)[C@@H](NC(=O)C2(F)CC2)[C@@H]2CCc3ccc(-c4cc(N5C[C@@H]6C[C@H]5CO6)cnn4)cc32)cc1 [Example 383, N-[(1S)-2-[4-(2,4-dimethylpyrazol-3-yl)anilino]-1-[(1R)-6-[5-[(1S,4S)-2-oxa-5-azabicyclo[2.2.1]heptan-5-yl]pyridazin-3-yl]indan-1-yl]-2-oxo-ethyl]-1-fluoro-cyclopropanecarboxamide]
100 to 1000 nM | Cc1n[nH]c(C)c1-c1ccc(NC(=O)[C@@H](NC(=O)C2(F)CC2)[C@@H]2CCc3ccc(-c4cc(C5CC5)cnn4)cc32)cc1 [Example 384, N-[(1S)-1-[(1R)-6-(5-cyclopropylpyridazin-3-yl)indan-1-yl]-2-[4-(3,5-dimethyl-1H-pyrazol-4-yl)anilino]-2-oxo-ethyl]-1-fluoro-cyclopropanecarboxamide]
100 to 1000 nM | Cc1cnn(C)c1-c1ccc(NC(=O)[C@@H](NC(=O)C2(F)CC2)[C@@H]2CCc3ccc(-c4cnnc(C5CC5)c4)cc32)cc1 [Example 385, N-[(1S)-1-[(1R)-6-(6-cyclopropylpyridazin-4-yl)indan-1-yl]-2-[4-(2,4-dimethylpyrazol-3-yl)anilino]-2-oxo-ethyl]-1-fluoro-cyclopropanecarboxamide]
